From patent US9180183B2, “Phospholipid drug analogs” (Telormedix SA, priority 2010, dated 2015)

Key:
[1] = published data, Clarke et al. 2009; cited from earlier work
[2] = tested on: AY-27 rat bladder cancer cell-line
[3] = tested on: Cutaneous Squamous Cell Carcinoma (SCC) cell lines SCL-I, SCL-II, SCC-12, SCC-13; assay: Proapoptotic and cytotoxic effects on cutaneous SCC cell lines (real-time cell analysis, microscopy); format: cell-based, human; conditions: cutaneous SCC cell lines
Description: SCC cells are grown under standard conditions (10% FBS).
Time and dose dependency of effects on total cell numbers have been investigated by real-time cell analysis, which is based on continuous monitoring of electric conductance in microtiter wells (E-plates, Roche), which corresponds to the cell numbers. […] For these assays 4 cell lines should be used to obtain a representative overview on the effects on SCC cells.

[4] = tested on: HLA-DR+/CD11c+/CD123- mDCs; assay: FACS analysis of myeloid DC activation in whole blood; format: cell-based, human; conditions: 24 hours; 0.1 and 0.5 uM; three donors
Description: The FACS analysis for donor 1 and donor 2 was made on another day than donor 3. The compound concentrations were as follows:
The FACS analysis was used to identify whether the test compounds could induce activation of B cells, and two different subsets of dendritic cells, namely the myeloid CD11c+/CD123− DCs and the plasmacytoid CD11c−/CD123+ DCs. The following markers were studied to identify the activation status of the different subsets:
The FACS staining was performed according to the manufacturer's instructions. Lysis of red blood cells was performed before FACS staining in order to minimize auto-florescence. To include as many B cells and DCs in the study as possible the FACS analyses were performed on 500,000 cells in total for each staining. A P1 gate was set only to include relevant cells on FSC vs. SSC (see FIGS. 12-15). The results of the individual analysis were present as Mean Fluorescence Intensity
The analysis of myeloid DCs was based on HLA-DR+/CD11c+/CD123−cells, thus all analyzed cells was included in the HLA-DR+ (P3) gate and CD11c+/CD123− (Q4) gate (see gates in FIGS. 13-15).

[5] = Serum exposure after intravesical chronic treatment in mouse
Description: Serum samples were taken at time points: day 0, 2 hours, day 1, 24 hours, and day 6, 2 hours.
Samples were evaporated and re-suspended in 70 microliters of acetonitrile/methanol 1:1.

human whole blood = assay: Cytokine secretion in human whole blood assay (ELISA); format: cell-based; conditions: for IL-12p40 levels: all donors
Description: Before drawing the blood, the compounds were added to 96 well round bottom plates in a 10× diluted sample at 20 ul. The compounds were diluted in RPMI media without serum but with antibiotics. Antibiotics were added at a 10× concentration. After drawing the blood, the whole blood sample was gently mixed to obtain a homogeneous sample, and 180 ul was added to each well.
All compounds were setup in concentrations at 0-0.01-0.03-0.1-0.5-2.0-10.0 micromolar as the final concentration. Vehicle control was DMSO control, where we used the highest concentration used for the compounds. After addition of blood, all plates were gently agitated at 37° C. and 5% CO2 until harvest.
Concentrations of cytokines were determined by ELISA from R&D Systems. The results were analyzed in Graph Pad Prism in order to prepare dose-response curves, and for determination of EC50 values. FACS analysis was made by using Becton-Dickinson FACSDiva software and subsequently illustrated in Graph Pad Prism.

HLA-DR+/CD20+ B cells = assay: FACS analysis of B cell activation in whole blood; format: cell-based, human; conditions: 24 hours; 2 and 10 uM; three donors
Description: The FACS staining was performed according to the manufacturer's instructions. Lysis of red blood cells was performed before FACS staining in order to minimize auto-florescence. To include as many B cells and DCs in the study as possible the FACS analyses were performed on 500,000 cells in total for each staining. […] The results of the individual analysis were present as Mean Fluorescence Intensity
The analysis of expression of the activation marker CD40 on B cells was made on double positive HLA-DR (MHC class II) (P4 gate) and CD20 cells (B cell marker) (P8 gate).

human PBMCs = assay: IL-6 secretion in human PBMCs, two batches of Compound A and SC12; format: cell-based; conditions: PBMCs; 10-1-0,1-0.01 micromolar
Description: PBMCs were purified from two donors and plated into 96 well plates at 2×10^5 cells/well in RPMI media including human 2% heat inactivated AB serum, glutamine, Pen-strep and R-mercapto-ethanol. […] The conditioned media was removed for ELISA analyses for IL-6, and the EC50 value determined for each compound and each batch.
All compounds were tested in four concentrations (10-1-0, 1-0.01 micromolar).
Concentrations of IL-6 were determined by ELISA from R&D Systems using the Microsoft Excel software. The results were analyzed in Graph Pad Prism in order to prepare dose-response curves, and for determination of EC50 values.

[6] = tested on: 73 primary molecular targets (human recombinant receptor types and subtypes or membrane fraction from rodent tissue homogenates); assay: Radioligand binding assay among 73 primary molecular targets; conditions: SC12 at 30 microM
PBMCs = assay: IL-6 and TNF-alpha secretion in PBMCs (ELISA), Model 2; format: cell-based, human; conditions: three donors
[7] = Plasma stability in rat plasma (first experiment); format: in vitro ADME
Description: (§1) A 10 μl of MeOH was added to improve solubility. […] The supernatant fractions were analyzed by LC/MS/MS. […] Percent loss of substrate in incubations was determined to estimate the in vitro half life of the test compound. Samples were analyzed on a UPLC (Waters) interfaced with a Premiere XE Triple Quadrupole (Waters).

[8] = Plasma stability in rabbit plasma (first experiment); format: in vitro ADME
Description: as §1

[9] = Stability study of compound A under storage conditions (HPLC); format: physicochemical
Description: (§2) At this point, a stability study was conducted on batch CH730/16/8g. The following conditions of storage were tested: • solid at room temperature (about 25° C.) and in presence of light • solid at external temperature (28-35° C.) under the sun-light • solid at +4° C. • solution in chloroform at room temperature and in presence of light • solution in chloroform at +4° C. • solution in chloroform at external temperature (28-35° C.) under the sun-light

[10] = tested on: recombinant protein antigens from Plasmodium falciparum and Mycobacterium ulcerans; assay: Pilot immunization study with adjuvanted protein antigens in mice; format: in vivo; conditions: three s.c. immunizations with 10 nMol adjuvant
Description: A pilot immunization study was conducted using Compound A and SC12 adjuvanted protein antigens. The immunization experiments were performed with two recombinant proteins expressed in E. coli. One antigen was derived from the malaria parasite Plasmodium falciparum and the other one from Mycobacterium ulcerans, which cause the ulcerative skin disease Buruli ulcer.

[11] = HPLC retest of stored compound A samples; format: physicochemical; conditions: for HPLC purity: room temperature, natural light
Description: as §2

[12] = Plasma stability in minipig plasma (first experiment); format: in vitro ADME
Description: as §1

[13] = Plasma stability in human plasma (first experiment); format: in vitro ADME
Description: as §1

[14] = Solubility in organic solvents; format: physicochemical; conditions: methanol, ethanol, dichloromethane, ethyl acetate, acetonitrile, acetone, chloroform
[15] = whole blood, 6 hours incubation
[16] = whole blood, 24 hours incubation
[17] = batch CH730/16/8G, solid, external T and light, t = 2 days
[18] = batch CH730/16/8G, solid, external T and light, t = 6 days
[19] = batch CH730/16/8G, solution in CHCl3, RT and light, t = 0
[20] = batch CH730/16/8G, solution in CHCl3, RT and light, t = 1 day
[21] = batch CH730/16/8G, solution in CHCl3, RT and light, t = 5 days
[22] = batch CH730/16/8G, solution in CHCl3, RT and light, t = 7 days
[23] = batch CH730/16/8G, solution in CHCl3, RT and light, t = 11 days
[24] = batch CH730/16/8G, solution in CHCl3, T about 30° C. without light, t = 1 day
[25] = batch CH730/16/8G, solution in CHCl3, external T and light, t = 1 day

## CCOCc1nc2c(N)nc3ccccc3c2n1CC(C)(C)O [Resiquimod]
[1]
  IFN-alpha secreted: < 200 pg/mL

## CC(C)Cn1cnc2c(N)nc3ccccc3c21 [Imiquimod, reference compound]
[2]; 0.5 ml intravesical instillation (Imiquimod 0.1%, SC12 0.38%) on day 2 and 5, day 12
  Range of weight of the rat bladders: 0.0814-0.1891 grams
[2]; intravesical instillation on day 2 and 5
  signs of toxicity (in words): No signs of toxicity
[2]; of 14 rats per group, day 12
  Tumor free (% of rats): 35.7%
  Tumor free (number of rats): 5
  pT2 Tumor (% of rats): 64.3%
  pT2 Tumor (number of rats): 9
[3]
  cell numbers (real-time cell analysis, electric conductance): reduced cell numbers
[4]
  CD80 expression in mDCs (MFI, in words): weak expression of CD80 in donor 1 and 2
[5]; intravesical 0.1%, Day 1, 24 hours, LLOQ 2.5 ng/ml
  Imiquimod levels in serum, Mean ± S.D.: <LLOQ
[5]; intravesical chronic treatment, 6 days
  accumulation in serum (in words): no accumulation
Human whole blood; supernatant from whole blood cell assays
  induction of DC secreted cytokines (in words): weak inducer
Human whole blood; whole blood, 6 h incubation
  IL-6 secretion (in words): low and insignificant amounts of IL-6
Human whole blood; [15]
  IFN-alpha secretion (in words): did not induce IFN-alpha secretion
  IL-10 production (in words): no IL-10 production was seen
  IL-12p40 secretion (in words): did not induce IL-12p40 secretion
Human whole blood; [16]
  IL-12p40 secretion (in words): did not induce IL-12p40
HLA-DR+/CD20+ B cells
  CD40 expression (MFI, in words): increased expression in all three donors
Human PBMCs
  IL-6 induction (in words): only active in inducing IL-6 at the highest concentration
[6]
  binding to receptors associated with pain-related syndromes (e.g. adenosine and sodium channel): shown to bind
PBMCs
  induction of IL-6 and TNF-alpha secretion (in words): weak ability to induce the cytokines

## CCCCCCCC/C=C\CCCCCCCC(=O)OCC(COP(=O)(O)OCCNC(=O)c1ccc(Cn2c(=O)[nH]c3c(N)nc(OCCOC)nc32)cc1)OC(=O)CCCCCCC/C=C\CCCCCCCC (stereo not shown) [Compound A, 2-(4-((6-amino-2-(2-methoxyethoxy)-8-oxo-7H-purin-9(8H)-yl)methyl)benzamido)ethyl 2,3-bis(oleoyloxy)propyl phosphate]
[7]
  stability classification: unstable
[8]
  stability classification: unstable
[9]; T>25° C. and in the presence of light
  degradation (in words): rapid degradation
[9]; [17]
  HPLC % at RRT = 1 (main peak): 37.6%
  HPLC % of impurity at RRT = 1.06: 9.2%
  HPLC % of impurity at RRT = 1.11: 27.9%
  HPLC % of impurity at RRT = 1.26: 14.8%
[9]; [18]
  HPLC % at RRT = 1 (main peak): 35.4%
  HPLC % of impurity at RRT = 1.06: 17.8%
  HPLC % of impurity at RRT = 1.14: 7.2%
  HPLC % of impurity at RRT = 1.17: 12.6%
  HPLC % of impurity at RRT = 1.28: 5.5%
[9]; [19]
  HPLC % at RRT = 1 (main peak): 81.4%
  HPLC % of impurity at RRT = 1.11: 8.6%
  HPLC % of impurity at RRT = 1.23: 4.2%
[9]; [20]
  HPLC % at RRT = 1 (main peak): 80.9%
  HPLC % of impurity at RRT = 1.11: 8.7%
  HPLC % of impurity at RRT = 1.24: 4.4%
[9]; [21]
  HPLC % at RRT = 1 (main peak): 79.3%
  HPLC % of impurity at RRT = 1.10: 9.9%
  HPLC % of impurity at RRT = 1.24: 4.2%
[9]; [22]
  HPLC % at RRT = 1 (main peak): 80.5%
  HPLC % of impurity at RRT = 1.11: 8.7%
  HPLC % of impurity at RRT = 1.27: 3.9%
[9]; [23]
  HPLC % at RRT = 1 (main peak): 82.0%
  HPLC % of impurity at RRT = 1.16: 6.9%
  HPLC % of impurity at RRT = 1.29: 3.7%
[9]; [24]
  HPLC % at RRT = 1 (main peak): 80.7%
  HPLC % of impurity at RRT = 1.11: 8.6%
  HPLC % of impurity at RRT = 1.27: 3.8%
[9]; [25]
  HPLC % at RRT = 1 (main peak): 80.3%
  HPLC % of impurity at RRT = 1.11: 8.0%
  HPLC % of impurity at RRT = 1.27: 3.2%
[10]
  local side effects: No local side effects
[11]; at room temperature and/or in the presence of light
  stability (in words): not a stable compound
[11]; Test date: Jun. 10, 2009
  HPLC purity: Purity: 57.5%
[11]; Test date: Jun. 11, 2009
  HPLC purity: Purity: 81.4%
[11]; Test date: May 20, 2009
  HPLC purity: Purity: 89.6%
[11]; tested Jun. 10, 2009, Retest date: Jun. 16, 2009
  HPLC purity: Purity: 44.8%
[11]; tested Jun. 11, 2009, Retest date: Jun. 18, 2009
  HPLC purity: Purity: 71.5%
[11]; tested May 20, 2009, Retest date: Jun. 12, 2009
  HPLC purity: Purity: 67.2%
[11]; tested May 20, 2009, Retest date: Jun. 17, 2009
  HPLC purity: Purity: 58.9%
Human whole blood; whole blood, three donors
  range of IL-6 secretion: 4000 to 8000 pg/mL
  ranges of IFN-alpha secreted: 1000 to 2000 pg/mL
Human whole blood; [15]
  IL-12p40 levels: 8.000 to 12.000 pg/mL
Human whole blood; [16]
  IL-12p40 levels: 20.000 to 25.000 pg/mL
[12]
  stability classification: unstable
[13]
  stability classification: unstable

## COCCOc1nc(N)c2[nH]c(=O)n(Cc3ccc(C(=O)O)cc3)c2n1 [Acid 7, 4-((6-amino-2-(2-methoxyethoxy)-8-oxo-7H-purin-9(8H)-yl)methyl)benzoic acid]
[14]
  solubility in common solvents: not soluble
